Measurements published in patent US8697747B2, “Enhancing coagulation or reducing fibrinolysis” (THe UAB Research Foundation, priority 2009, dated 2014).

Experiments:
[1] = test system: Factor XIII (FXIII) deficient plasma; assay: Thrombelastographic coagulation kinetics, Celite-activated FXIII deficient plasma; type: biochemical, human
Protocol: Pooled normal plasma (George King Bio-Medical, Overland Park, Kans.) anticoagulated with sodium citrate was utilized for experimentation. […] Factor XIII (FXIII) deficient plasma anticoagulated with sodium citrate was also obtained from George King Bio-Medical (Overland Park, Kans.).
Plasma Sample Composition. The final volume for all subsequently described plasma sample mixtures was 359.4 μL. […] (Motterlini et al., Expert Opin Investig Drugs, 14:1305-1318 (2005), which is incorporated by reference herein in its entirety).
Clot Lifespan Model Analyses. Plasma sample mixtures were placed in a disposable cup in a computer-controlled THROMBELASTOGRAPH® hemostasis system (Model 5000, Haemoscope Corp., Niles, Ill.), with addition of CaCl2 as the last step to initiate clotting. Data were collected for 15 minutes, as normal plasma completes thrombus formation within this interval in this system (Dong et al., Eur J Pharmacol 590:99-104 (2008)).
Statistical Analyses. Data are presented as mean±SD. All conditions described were represented with n=8 experiments, as n=6-8 typically provides statistical power>0.8 in similar analyses (Nielsen et al., Acta Anaesthesiol Scand 49:222-231 (2005) and Nielsen et al., Blood Coagul Fibrinolysis 17:75-81 (2006)). Analyses of the effects of CORM-2 and iCORM-2 on thrombelastographic variables were conducted using one way analysis of variance with the Holm-Sidak test used for post hoc comparisons. Graphical representation of the data was generated with commercially available software (Origin 7.5, OriginLab Corp., Northampton, Mass.). A P value of ≦0.05 was considered significant.

[2] = test system: factor IX deficient plasma; assay: Thrombelastography, factor IX deficient plasma; type: biochemical, human; conditions: 100 mmol CORM-2 vs control; FIX deficient plasma, 5 individuals
Protocol: Plasma deficient (<1% normal activity) in factor VIII (FVIII; 11 individuals), factor IX (FIX; 5 individuals), or factor VII (FVII; 4 individuals) was obtained from anonymous donors (George King Bio-Medical, Overland Park, Kans.) and was anticoagulated with sodium citrate. The final volume for all subsequently described plasma sample mixtures was […]. Sample composition consisted of […] of plasma, […] of tissue factor (0.1% final concentration in 0.9% NaCl; Diagnostica Stago, Asnieres, France), 3.6 mL of dimethyl sulfoxide (DMSO) or DMSO with CORM-2 ([…]; Sigma-Aldrich, St. Louis, Mo.), and 20 mL of […] CaCl2. […] (Motterlini et al. 2005). While CORM-2 decays slowly in DMSO, DMSO was added to the dry compound just prior to placement into the plasma mixture.
Plasma sample mixtures were placed in a disposable cup in a computer-controlled THROMBELASTOGRAPH® hemostasis system (Model 5000; Haemoscope Corp., Niles, Ill.), with addition of CaCl2 as the last step to initiate clotting. Data were collected until clot strength stabilized (maximum amplitude).
Statistical analyses. […] A paired student's t-test was used to analyze the effects of CORM-2 exposure in FVIII deficient individuals. The results of the FIX and FVII deficient groups were presented but not statistically analyzed secondary to the small number of individuals in each cohort. […] Statistical analyses and graphical representation of the data were generated with commercially available software (SigmaPlot 11.0; Systat Software Inc., San Jose, Calif.; CorelDRAW 12.0; Corel Corp., Ottawa, Ontario, Canada). A P value of less than 0.05 was considered significant.

[3] = 100 μM, Celite-activated FXIII deficient plasma, mean ± SD, n=8

SMILES: [C-]#[O+].[C-]#[O+].[C-]#[O+].[C-]#[O+].[C-]#[O+].[C-]#[O+].[Cl][Ru][Cl].[Cl][Ru][Cl] [CORM-2, tricarbonyldichlororuthenium (II) dimer]
- MRTG (maximum rate of thrombus generation) [1, 3]: 9.1 ± 1.2 dynes/cm^2/sec
- TMRTG (time to maximum rate of thrombus generation) [1, 3]: 296 ± 13 s
- TTG (total thrombus generation) [1, 3]: 163 ± 21 dynes/cm^2
- equivalent replacement of FXIII activity with regard to enhancement of coagulation kinetics ([1]; addition to FXIII-deficient plasma): 100%
- effect on MRTG (speed of clot formation) [2]: four of five individuals had an increase in the speed of clot formation
- effect on TMRTG [2]: decreased the TMRTG value of all five individual plasma samples tested
- effect on TTG [2]: All individual plasma samples demonstrated an increase in TTG
